# Source: patent US9737523B2, “Anti-fibrogenic compounds, methods and uses thereof” (priority 2013, dated 2017)
# Key:
# [1] = system: MMP-1; assay: MMP-1 expression in human dermal fibroblasts, Western blot; format: cell-based; conditions: for MMP-1 expression: 48 hours
# Experimental: Cells were then harvested after 48 hours and western blot analysis was performed.
# Cells were then harvested by trypsinization and western blot analysis was performed.
# Cells were harvested by Trypsin/EDTA and lysed with cell lysis buffer containing 50 mM Tris-HCl (pH7.40), 150 mM NaCl, 10 mM EDTA, 5 mM EGTA, 1% TritonX-100™, 0.5% Igepal CA-630, 0.025% NaN3 and protease inhibitor cocktail (Sigma™). Cell debris was removed by centrifugation at 20,000×g for 10 minutes. The protein concentration in supernatant was determined using the MicroBCA™ method (Pierce™, Rockford, Ill.). Proteins in supernatant were mixed with protein sample loading buffer (final concentration: 60 mM Tris-HCl (pH 6.80), 2% SDS, 10% glycerol, 1.5% β-mercaptoethanol, 0.002% bromophenol blue) and size fractioned by 10% of SDS-polyacrylamide gel. After proteins were transferred onto nitrocellulose membrane by iBlot™ (Invitrogen Life Technologies™), non-specific binding were blocked with phosphate buffer saline twenty 20 (PBS-T) containing 5% skim milk for 1 hour. The membrane was then incubated with primary antibody overnight. After incubation with a secondary antibody for 1 hour, protein bands were visualized by an enhanced chemiluminescence (ECL™) detection system (Santa Cruz Biotechnology™, Santa Cruz, Calif.). The primary antibodies used in this study were: mouse monoclonal anti-human MMP-1 (R&D Systems™, Minneapolis, Minn.), mouse monoclonal anti-human MMP-3 (R&D System™), rabbit monoclonal anti-human MMP-2 (Epitomics™, Burlingame, Calif.), rabbit polyclonal anti-phospho-MEK1/2 (Ser217/221™) (Cell Signaling Technology™, Danvers, Mass.), rabbit polyclonal anti-phospho-p44/42 MAPK (Thr202/Tyr204) (Cell Signaling Technology™), monoclonal anti-β-actin (Sigma™), and mouse anti-type-1 procollagen (Developmental Studies Hybridoma Bank™, Iowa City, Iowa). The secondary antibodies were either goat anti-mouse IgG (H+L) HPR conjugate or goat anti-rabbit IgG (H+L) HPR conjugate (Bio-rad Laboratory™ (Mississauga, ON, Canada). Secondary antibodies were used at a concentration of 1:3000.
# [2] = system: MMPs; assay: MMP activity in conditioned media of fibroblasts, SensoLyte 520 generic MMP assay (FRET); format: cell-based, human; conditions: 50 μg/ml, 48 hours
# Experimental: The activity of MMPs was assessed using a F-FAM/QXL™ 520 fluorescence resonance energy transfer (FRET) peptide as the MMP substrate (SensoLyte 520™ generic MMP assay kit, AnaSpec, Inc.™, Fremont, Calif.) according to the manufacturer's protocol. In brief, cells were treated with or without 50 μg/ml of kynurenine for 48 hours. Conditioned media were collected and incubated with 1 mM of APMA (4-aminophenyl-mercuric acetate, in component C, AnaSpect™) at 37° C. for 3 hrs. After activation MMPs with APMA, 50 μl/well in 96-well plate of conditioned media was mixed with 50 μl of MMP substrate solution. After incubated at room temperature for 60 minutes, the fluorescence intensity at EX/EM=490 nm/520 nm in each sample including the substrate control were measured using Infinite F500™ fluorescence microplate reader (Tecan Group Ltd™, Morrisville, N.C.).
# [3] = system: A549; assay: MMP-1 expression in lung epithelial carcinoma cell line A549, Western blot; format: cell-based, human; conditions: A549, 12.5 to 150 μg/ml, 48 hours
# Experimental: The squamous cell carcinoma (UMSCC) cell line derived from patients with head and neck cancer (ATCC™, Manassas, Va.) were maintained in RPMI-1640 medium with 10% FBS. The Human keratinocyte cell line HACAT (ATCC) and the carcinomic human alveolar basal epithelial cell line A549 (ATCC™) were cultured in DMEM with 10% FBS. The diploid lung fibroblasts IMR-90 (ATCC™) were maintained in Minimum Essential Medium (MEM, Invitrogen™) with 10% FBS.
# Similarly, other cells such as synoviocytes, IMR-90, keratinocytes, UMSCC and A549 were treated with kynurenine at concentrations of 12.5 to 150 μg/ml in appropriate media for each cell type as described above for 48 hours. Cells were then harvested for western blot analysis.
# Cells were harvested by Trypsin/EDTA and lysed with cell lysis buffer containing 50 mM Tris-HCl (pH7.40), 150 mM NaCl, 10 mM EDTA, 5 mM EGTA, 1% TritonX-100™, 0.5% Igepal CA-630, 0.025% NaN3 and protease inhibitor cocktail (Sigma™). Cell debris was removed by centrifugation at 20,000×g for 10 minutes. The protein concentration in supernatant was determined using the MicroBCA™ method (Pierce™, Rockford, Ill.). Proteins in supernatant were mixed with protein sample loading buffer (final concentration: 60 mM Tris-HCl (pH 6.80), 2% SDS, 10% glycerol, 1.5% β-mercaptoethanol, 0.002% bromophenol blue) and size fractioned by 10% of SDS-polyacrylamide gel. […]
# [4] = system: ERK1/2; assay: Human phospho-kinase array in dermal fibroblasts; format: cell-based; conditions: 100 μg/ml, after 1 hour of treatment
# Experimental: Protein phosphorylation was evaluated using the Human Phospho-Kinase Array™ (R&D System™) according to the manufacturer's instructions. Briefly, capture and control antibodies were spotted in duplicate on nitrocellulose membranes (total 46 kinase phosphorylation sites). Cell lysates (300 μg of total protein per array) were incubated with array overnight. The array was washed to remove unbound proteins, followed by incubation with the cocktail of biotinylated detection antibodies. After incubation with streptavidin-HPR for 30 minutes, signals were visualized by ECL detection system (Santa Cruz™). Blots were analyzed by densitometry, and protein Phosphorylation was Normalized to a Positive Control which was Represented in Each Membrane.
# [5] = system: mouse splenocytes; assay: Immune factor protein microarray of conditioned media of ConA-activated splenocytes; format: cell-based; conditions: 100 μg/mL, 48 hrs
smiles,measurement,setting,value
Nc1ccccc1C(=O)CC(N)C(=O)O (racemic) [kynurenine],MMP1 protein expression 48 hours after treatment removal,"[1]; 100 μg/ml for 48 hours, then 48 hours after removal",gradually reduced to normal levels
same,MMP1 expression versus untreated cells after treatment removal,"[1]; 100 μg/ml for 48 hours, then another 24 hours after removal",remained significantly higher
same,MMP1 expression,"[1]; 100 μg/ml, at 48 hours after treatment",marked increase
same,MMP-1 expression,[1]; 25-150 μg/ml,significantly increased
same,concentration that could stimulate MMP-1 expression (as little as),"[1]; dermal fibroblasts, data not shown",12.5 µg/mL
same,MMP-1 expression,"[1]; kynurenine isoforms, 50 μg/ml",increase
same,mean activity of MMPs in conditioned media versus control media,[2],significantly higher
same,MMP-1 expression versus untreated controls,[3],did not significantly differ
same,ERK1/2 activation (phospho-kinase array),[4],activated
same,IL-17 production,[5],significantly decrease
same,"proinflammatory cytokine and chemokine production (IL-1, IL-2, CXCL9, CXCL10)",[5],immune suppressive effect
